Test: mn = molality of the nth substance listed, in mol/kg
Details: 99.6 kPa, Liquid, Vibrating tube method

NC(N)=O [urea] + NC=O
mass density [kg/m3]
Details | 288.15 K | 298.15 K | 308.15 K | 318.15 K | 328.15 K
m1 = 0.1057 | 1138.95 | 1130.54 | 1122.1 | 1113.61 | 1105.1
m1 = 0.1893 | 1139.77 | 1131.36 | 1122.91 | 1114.44 | 1105.94
m1 = 0.3308 | 1141.12 | 1132.72 | 1124.29 | 1115.82 | 1107.33
m1 = 0.4766 | 1142.51 | 1134.11 | 1125.69 | 1117.23 | 1108.75
m1 = 0.675 | 1144.34 | 1135.96 | 1127.55 | 1119.11 | 1110.64
m1 = 0.7518 | 1145.05 | 1136.67 | 1128.26 | 1119.83 | 1111.37
m1 = 0.8498 | 1145.93 | 1137.56 | 1129.16 | 1120.74 | 1112.28
m1 = 1.07 | 1147.9 | 1139.54 | 1131.15 | 1122.75 | 1114.3
m1 = 1.292 | 1149.82 | 1141.49 | 1133.11 | 1124.72 | 1116.29
m1 = 1.33 | 1150.15 | 1141.82 | 1133.44 | 1125.05 | 1116.63
m1 = 1.424 | 1150.95 | 1142.62 | 1134.26 | 1125.87 | 1117.45
m1 = 1.555 | 1152.06 | 1143.73 | 1135.38 | 1127 | 1118.59
m1 = 1.681 | 1153.09 | 1144.79 | 1136.43 | 1128.06 | 1119.66
m1 = 1.718 | 1153.4 | 1145.09 | 1136.75 | 1128.38 | 1119.98
m1 = 1.824 | 1154.26 | 1145.96 | 1137.63 | 1129.27 | 1120.87
m1 = 1.999 | 1155.67 | 1147.39 | 1139.06 | 1130.7 | 1122.32

NC(N)=O [urea] + O
mass density [kg/m3]
Details | 288.15 K | 298.15 K | 308.15 K | 318.15 K | 328.15 K
m1 = 0.09134 | 1000.61 | 998.5 | 995.42 | 991.58 | 987.02
m1 = 0.2167 | 1002.67 | 1000.46 | 997.32 | 993.41 | 988.81
m1 = 0.3509 | 1004.84 | 1002.52 | 999.32 | 995.36 | 990.71
m1 = 0.5181 | 1007.5 | 1005.07 | 1001.77 | 997.75 | 993.05
m1 = 0.6698 | 1009.88 | 1007.34 | 1003.96 | 999.88 | 995.14
m1 = 0.8161 | 1012.14 | 1009.5 | 1006.05 | 1001.91 | 997.13
m1 = 0.9745 | 1014.54 | 1011.8 | 1008.27 | 1004.08 | 999.25
m1 = 1.195 | 1017.83 | 1014.96 | 1011.32 | 1007.05 | 1002.16
m1 = 1.33 | 1019.8 | 1016.85 | 1013.15 | 1008.83 | 1003.92
m1 = 1.489 | 1022.09 | 1019.05 | 1015.27 | 1010.91 | 1005.95
m1 = 1.6 | 1023.67 | 1020.57 | 1016.75 | 1012.35 | 1007.36
m1 = 1.707 | 1025.18 | 1022.02 | 1018.15 | 1013.72 | 1008.7
m1 = 1.898 | 1027.81 | 1024.56 | 1020.6 | 1016.12 | 1011.06
m1 = 2.034 | 1029.63 | 1026.33 | 1022.32 | 1017.8 | 1012.71

Reference: the NIST ThermoML archive (doi:10.1021/acs.jced.9b00794)
